Data taken from patent US20240287048A1, “SUBSTITUTED ACYL SULFONAMIDES FOR TREATING CANCER” (The Broad Institute, Inc., priority 2020, published 2024).

Key:
KAT6A = molecular target: T1, KAT6A (Homo sapiens, UniProt Q92794); assay: Kat6a activity assay (TR-FRET, acetylation of biotinylated histone H4 peptide); type: biochemical; settings: recombinant human His-tagged Kat6a (amino acids 194-810), 60 mins at 22° C., read-out: KAT6A-DPF/HAT domain IC50 [mol/l] (arithmetic mean)
T1 construct: Recombinant human His-tagged Kat6a protein (amino acids 194-810); His; made in house; host or cells: Baculovirus-infected Sf9 insect cells
T1 sequence (Q92794 194-810): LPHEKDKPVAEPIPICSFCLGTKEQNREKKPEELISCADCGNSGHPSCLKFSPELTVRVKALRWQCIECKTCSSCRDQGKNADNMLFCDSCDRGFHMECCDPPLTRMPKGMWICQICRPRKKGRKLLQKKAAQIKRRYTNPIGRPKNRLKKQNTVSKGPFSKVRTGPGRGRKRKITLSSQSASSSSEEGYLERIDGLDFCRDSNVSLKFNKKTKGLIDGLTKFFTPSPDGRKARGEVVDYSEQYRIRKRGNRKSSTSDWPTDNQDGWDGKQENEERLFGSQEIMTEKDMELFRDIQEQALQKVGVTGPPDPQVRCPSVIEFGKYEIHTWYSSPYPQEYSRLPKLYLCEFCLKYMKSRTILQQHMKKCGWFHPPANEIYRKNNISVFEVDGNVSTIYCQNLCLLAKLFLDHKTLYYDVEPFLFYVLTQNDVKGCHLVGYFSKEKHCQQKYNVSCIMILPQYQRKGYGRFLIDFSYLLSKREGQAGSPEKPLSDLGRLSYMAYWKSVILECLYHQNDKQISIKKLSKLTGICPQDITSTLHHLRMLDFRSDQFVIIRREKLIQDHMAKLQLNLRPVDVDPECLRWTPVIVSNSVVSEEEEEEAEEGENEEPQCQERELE
Source text: Kat6a inhibitory activities of the compounds described in the present invention were quantified using a Fluorescence Resonance Energy Transfer (TR-FRET) assay which measures acetylation of a synthetic, biotinylated Histone-H4-derived peptide by the enzyme.
Recombinant human His-tagged Kat6a protein (amino acids 194-810), was purified in-house from Baculovirus-infected insect cells (Sf9). Histone H4 peptide (amino acids 1-24, […]-VLRD-K(Btn)-amide), which was used as substrate, was synthesized by Biosyntan GmbH, Berlin, Germany. Acetyl Coenzyme A was purchased from Sigma-Aldrich (#A-2056).
Kat6a was incubated for 60 mins at 22° C. in the presence of different concentrations of test substances (0 μM, and within the range 0.01-20 μM) in assay buffer [25 mM Tris/HCl pH 8, 1 mM EGTA, 2.5 mM Glutathion, 0.02% Chicken Albumin, 0.05% Pluronic F127, 25 mM NaCl, 220 nM H4 peptide and 600 nM Acetyl Coenzyme A].
The reaction was stopped by addition of Detection Solution (25 mM HEPES pH 7.5, 0.1% BSA, 22 nM SAXL665 (Cisbio #610SAXLE), 100 μM Anacardic Acid (Enzo #ALX-270-381), 1 nM Anti-Histone H4 (ACETYL K8) Antibody (ABCAM #AB15823) and 0.5 nM Anti-Rabbit IgG Eu (Perkin Elmer #AD0083).
The fluorescence emission at 620 nm and 665 nm after excitation at 330-350 nm was measured in a TR-FRET measuring instrument, for instance a Rubystar or a Pherastar (both from BMG Lab Technologies, Offenburg, Germany) or a Viewlux (Perkin-Elmer). The ratio of the emission at 665 nm and at […] was used as indicator of the amount of acetylated peptide.
The resulting data (ratio) were normalized, taking 0% inhibition as the mean value of control measurements where all reagents were included. In this case 50 nl DMSO were used instead of compounds. […] IC50 values were determined by regression analysis based on a 4 parameter equation (minimum, maximum, ICM, Hill; Y=Max+(Min−Max)/(1+(X/ICso) Hill) using the Screener Software (Genedata).

ZR-75-1 cells = assay: Proliferation assay in ZR-75-1 cells; type: cell-based; settings: Homo sapiens, 144 h, Alamar Blue, read-out: ZR75-1 proliferation assay, EC50[M] (arithmetic mean)
Source text: (§1) For compound characterization cell survival assays were routinely run in two cell lines. ZR-75-1 is a breast carcinoma cell line containing a focal KAT6A amplification and high KAT6A protein expression. Proliferation of this cell line is inhibited upon treatment with KAT6A inhibitors. As a negative control cell line MDA-MB-436 were used. These cells carry a […] deletion of the KAT6A gene, have a low KAT6A protein expression and are not growth inhibited upon treatment with KAT6A inhibitors.
(§2) For measurements cell lines were plated at the below indicated concentration per […] in 96-well plates in a humidified incubator at 37° C. and 5% CO2.
(§3) ZR-75-1 (ATCC, CRL-1500; breast carcinoma); 3000 cells per well; culture medium: RPMI 1640 (Biochrom #FG 1215) medium containing 2.5% FBS (Biochrom #S0615). LCLC-97TM1 (DSMZ, ACC 388; large cell lung carcinoma); 6000 cells per well; culture medium: RPMI 1640 (Biochrom #FG 1215) medium containing 2.5% FBS (Biochrom #S0615). MDA-MB-436 (CLS, 300278; breast adenocarcinoma); 3000 cells per well; culture medium: DMEM/Ham's F12 (Biochrom #FG 4815) medium containing 2.5% FBS (Biochrom #S0615).
(§4) Each sample was prepared as triplicate and rim wells were excluded. Plates were incubated at 37° C. and 5% CO2 for 144 h. Cell viability was measured by adding 10 μL of Alamar Blue Reagent (Invitrogen #DAL 1100) and plates were incubated for 2 h at 37° C. and 5% CO2. Fluorescence was measured at 590 nm wavelength with a Tecan Spark or Victor X3 MTP-Reader (PerkinElmer).

MDA-MB-436 cells = assay: Proliferation assay in MDA-MB-436 cells (negative control cell line); type: cell-based; settings: Homo sapiens, 144 h, Alamar Blue, read-out: MDA-MB-436 proliferation assay, EC50[M] (arithmetic mean)
Source text: as §1, §2, §3, §4

LCLC-97TM1 cells = assay: Proliferation assay in LCLC-97TM1 cells; type: cell-based; settings: Homo sapiens, 144 h, Alamar Blue, read-out: LCLC97TM1 proliferation assay, EC50[M] (arithmetic mean)
Method: as §2, §3, §4

[1] = test system: ESR1 transcription in MVLN cells; assay: Repression of ESR1 transcription, MVLN luciferase reporter assay; type: cell-based; settings: Homo sapiens, luciferase signal after 24 h, read-out: MVLN reporter assay, IC50[M] (arithmetic mean)
Source text: KAT6A controls transcription of the ESR1 gene in breast cancer cells. Compound treatment that interferes with this mechanism was quantified using MVLN cells. These cells constitutively express the ER and are stably transfected with the luciferase (LUC) reporter gene and the corresponding hormone responsive element derived from the 5′-flanking region of the Xenopus Vitellogenin A2 gene (Pons et al., 1990, Demirpense et al., 1993, Joyeux et al., 1993). The repressive effect on ERα transcription activity of a test chemical is directly related to the luciferase measured in the lysate of treated MVLN cells.
Each sample was prepared as duplicate and rim wells were excluded. For luciferase signal determination 100 μl of a 1:1 mixture of Steadylite plus (Perkin Elmer; 6016759) and assay medium was added after 24 h for 15 minutes and measured in Victor X3 (Perkin Elmer). To exclude any effects caused by cell loss during the treatment, cell density was determined using Alamar Blue (Invitrogen; DAL1100). Prior to the luciferase measurement 10 μl Alamar Blue were added to each well and the plates were incubated for 2 h in the incubator. Then fluorescence was measured with Victor X3 (Perkin Elmer) at 530 nm/590 nm.

Row | Compound | IC50 (KAT6A) [µM] | EC50 (MDA-MB-436 cells) [M] | IC50 [1] [M] | EC50 (ZR-75-1 cells) [M] | EC50 (LCLC-97TM1 cells) [M]
1 | O=C(O)c1ccc2cc(C(=O)NS(=O)(=O)c3ccccc3-c3ccccc3)oc2c1 [Example 5, 2-[([1,1′-biphenyl]-2-sulfonyl)carbamoyl]-1-benzofuran-6-carboxylic acid] | 5.75 | > 2e-05 | > 2e-05 | > 2e-05 | 
2 | CN(C)C(=O)c1ccc2cc(C(=O)NS(=O)(=O)c3ccccc3-c3ccccc3)oc2c1 [Example 8, N^2-([1,1′-biphenyl]-2-sulfonyl)-N^6,N^6-dimethyl-1-benzofuran-2,6-dicarboxamide] | 17.3 | > 2e-05 | > 2e-05 | > 2e-05 | 
3 | Cc1ccc2c(C)c(C(=O)NS(=O)(=O)c3ccccc3-c3ccccc3)oc2c1 [Example 14, N-([1,1′-biphenyl]-2-sulfonyl)-3,6-dimethyl-1-benzofuran-2-carboxamide] | 0.459 | > 2e-05 | 4.11e-06 | 8.7e-06 | 9.97e-06
4 | O=C(NS(=O)(=O)c1ccccc1-c1ccccc1)c1cc2ccc(C3CC3)c(F)c2o1 [Example 15, N-([1,1′-biphenyl]-2-sulfonyl)-6-cyclopropyl-7-fluoro-1-benzofuran-2-carboxamide] | 0.908 | > 2e-05 | 6.75e-06 | 8.42e-06 | > 2e-05
5 | Cc1ccc2cccc(S(=O)(=O)NC(=O)c3cc4ccc(C(F)(F)F)cc4o3)c2n1 [Example 19, N-(2-Methylquinoline-8-sulfonyl)-6-(trifluoromethyl)-1-benzofuran-2-carboxamide] | 0.729 | > 2e-05 | 3.63e-06 | 4.94e-06 | > 2e-05
6 | C=C(C)c1ccc2cc(C(=O)NS(=O)(=O)c3ccccc3-c3ccccc3)oc2c1 [Example 23, N-([1,1′-biphenyl]-2-sulfonyl)-6-(prop-1-en-2-yl)-1-benzofuran-2-carboxamide] |  | > 2e-05 |  | 1.15e-06 | 
7 | CCOc1ccc(C(C)CC)cc1S(=O)(=O)NC(=O)c1cc2c(F)cc(C3CC3)cc2o1 (stereo not drawn) [Example 29, 6-Cyclopropyl-N-(2-ethoxy-5-sec-butyl-phenyl)sulfonyl-4-fluoro-benzofuran-2-carboxamide] | 0.00184 | > 2e-05 | 7.41e-08 | 8.86e-08 | 2.77e-07
8 | O=C(NS(=O)(=O)c1ccc(Cl)cc1Cl)c1cc2c(F)cc(C3CC3)cc2o1 [Example 37, 6-Cyclopropyl-N-(2,4-dichlorophenyl)sulfonyl-4-fluoro-benzofuran-2-carboxamide] | 0.078 | > 2e-05 | 1.06e-05 | 6.28e-06 | > 2e-05
9 | CN(C)c1cc(C2CC2)cc2oc(C(=O)NS(=O)(=O)c3ccccc3)cc12 [Example 42, N-(Benzenesulfonyl)-6-cyclopropyl-4-(dimethylamino)benzofuran-2-carboxamide] | 0.417 | > 2e-05 | > 2e-05 | > 2e-05 | > 2e-05
10 | O=C(NS(=O)(=O)c1ccccc1)c1cc2c(C(F)(F)F)cc(C3CC3)cc2o1 [Example 52, N-(Benzenesulfonyl)-6-cyclopropyl-4-(trifluoromethyl)benzofuran-2-carboxamide] | 0.138 |  | 1.88e-05 | 7.32e-06 | 
11 | CC(C)c1ccc2cc(C(=O)NS(=O)(=O)c3ccc(Cl)cc3Cl)oc2c1 [Example 57, N-(2,4-Dichlorobenzenesulfonyl)-6-(propan-2-yl)-1-benzofuran-2-carboxamide] |  | > 2e-05 | 1.21e-05 | > 2e-05 | 

Second part, led by results:

Row | IC50 (KAT6A) [µM] | EC50 (MDA-MB-436 cells) [M] | IC50 [1] [M] | Compound | EC50 (ZR-75-1 cells) [M] | EC50 (LCLC-97TM1 cells) [M]
12 | > 20 | > 2e-05 |  | N#Cc1ccc2cc(C(=O)NS(=O)(=O)c3ccccc3-c3ccccc3)oc2c1 [Example 3, N-([1,1′-biphenyl]-2-sulfonyl)-6-cyano-1-benzofuran-2-carboxamide] | > 2e-05 | 
13 | 15.2 | > 2e-05 | 1.98e-05 | O=C(NS(=O)(=O)c1ccccc1-c1ccccc1)c1cc2ccc(-c3cccnc3)cc2o1 [Example 4, N-([1,1′-biphenyl]-2-sulfonyl)-6-(pyridin-3-yl)-1-benzofuran-2-carboxamide] | > 2e-05 | > 2e-05
14 | 0.827 | > 2e-05 | 5.56e-06 | CCOc1ccccc1S(=O)(=O)NC(=O)c1oc2cc(C)ccc2c1C [Example 18, N-(2-Ethoxybenzene-1-sulfonyl)-3,6-dimethyl-1-benzofuran-2-carboxamide] | 5.01e-06 | 1.06e-05
15 | > 20 | > 2e-05 |  | O=C(NS(=O)(=O)c1ccccc1-c1ccccc1)c1cc2ccc(-c3ccncc3)cc2o1 [Example 20, N-([1,1′-Biphenyl]-2-sulfonyl)-6-(pyridin-4-yl)-1-benzofuran-2-carboxamide] | 3.49e-06 | 
16 | 0.0173 | > 2e-05 | 1e-06 | O=C(NS(=O)(=O)c1ccccc1-c1ccccc1)c1cc2c(F)cc(C3CC3)cc2o1 [Example 38, 6-Cyclopropyl-4-fluoro-N-(2-phenylphenyl)sulfonyl-benzofuran-2-carboxamide] | 9.57e-07 | 3.21e-06
17 | 0.0707 | > 2e-05 | 4.57e-06 | O=C(NS(=O)(=O)c1ccccc1)c1cc2c(F)cc(C3CC3)cc2o1 [Example 39, N-(Benzenesulfonyl)-6-cyclopropyl-4-fluoro-benzofuran-2-carboxamide] | 3.21e-06 | > 2e-05
18 | 0.0256 |  | 2.98e-06 | CCOc1ccccc1S(=O)(=O)NC(=O)c1cc2c(C(F)(F)F)cc(C3CC3)cc2o1 [Example 51, 6-Cyclopropyl-N-(2-ethoxyphenyl)sulfonyl-4-(trifluoromethyl)benzofuran-2-carboxamide] | 9.14e-06 | 
19 | 0.043 |  | 6.16e-06 | O=C(NS(=O)(=O)c1ccccc1-c1ccccc1)c1cc2c(C(F)(F)F)cc(C3CC3)cc2o1 [Example 53, 6-Cyclopropyl-N-(2-phenylphenyl)sulfonyl-4-(trifluoromethyl)benzofuran-2-carboxamide] | > 2e-05 | 
